# Experimental data published in patent publication US8399482B2, “6-substituted isoquinolines and isoquinolinones” (Sanofi, priority 2008, dated 2013).
# Key:
# Format in all cases: biochemical
# [1] = biological target: T1, recombinant human PKA (Homo sapiens, UniProt P17612); assay: Determination of Protein Kinase A inhibition (selectivity); settings: from IC50 values
# T1 construct: recombinant human PKA (residues 1-351, N-terminal His-tag); His-tag (N); purchased Invitrogen, Karlsruhe, Germany
# Procedure: (§1) 2) Determination of Protein Kinase a and Protein Kinase G Inhibition
# (§2) To measure PKA and PKG1-beta inhibition, IC50 values were determined according to the following protocol:
# (§3) Active recombinant human PKG1-beta (full-length, with N-terminal His-tag) was purchased from Millipore GmbH, Schwalbach, Germany. Active recombinant human PKA (residues 1-351, N-terminal His-tag) was obtained from Invitrogen, Karlsruhe, Germany. The peptide substrate, Fluorescein-[…]-COOH, was obtained from JPT Peptide Technologies, Berlin, Germany. Adenosine-5′-triphosphate (ATP), bovine serum albumine (BSA), dimethylsulphoxide (DMSO), 4-(2-Hydroxyethyl)piperazine-1-ethanesulfonic acid (Hepes), Brij-35, dithiothreitol (DTT) and Pluronic F-68 were purchased from Sigma-Aldrich, Munich, Germany. Tris(hydroxymethyl)-aminomethane (Tris), magnesium chloride, NaOH, 1M HCl and EDTA were obtained from Merck Biosciences, Darmstadt, Germany. “Complete” protease inhibitor was from Roche Diagnostics, Mannheim, Germany. Test compounds were diluted to the appropriate concentrations in buffer 1 (25 mM Tris-HCl, pH 7.4, 5 mM MgCl2, 2 mM DTT, 0.02% (w/v) BSA, 0.01% Pluronic F-68 and 3% DMSO). PKG1-beta and PKA were diluted to concentrations of 150 ng/ml and 30 ng/ml, respectively, in buffer 2. The peptide substrate and ATP were diluted to concentrations of 3 μM and 120 μM, respectively, in the buffer 2. Two μl of the compound solution were mixed with 2 μl of the diluted enzyme in a 384-well small volume microtiter plate (Greiner, Bio-One, Frickenhausen, Germany), and the kinase reaction was initiated by addition of 2 μl of the solution containing peptide substrate and ATP. After 60 min incubation at 32° C., the reaction was stopped by addition of 20 μl of a solution containing 100 mM Hepes-NaOH, pH 7.4, 0.015% (v/v) Brij-35, 45 mM EDTA and 0.227% chip coating reagent 1 (Caliper Lifescience Inc, Hopkinton, Mass.). Phosphorylation of the substrate peptide was then detected on a Caliper 3000 instrument essentially as described by Pommereau et al (J. Biomol. Screening 9(5), 409-416, 2004). Separation conditions were as follows: Pressure −1.3 psi, upstream voltage −1562 V, downstream voltage −500 V, sample sip time 200 ms, Positive controls (buffer 1 instead of compound) and negative controls (buffer 1 instead of compound and buffer 2 instead of kinase solution) were run in parallel on each plate. The following products/compounds were tested in said assay by using the respective form (salt or free base) obtained as in the examples described above and the following activities were measured.
# [2] = biological target: T2, recombinant human PKG1-beta (Homo sapiens, UniProt Q13976); assay: Determination of Protein Kinase G inhibition (selectivity); settings: from IC50 values
# T2 construct: PKG1-beta (full-length, with N-terminal His-tag); His-tag (N); purchased Millipore GmbH, Schwalbach, Germany
# T2 sequence (Q13976 1-686 isoform Q13976-2): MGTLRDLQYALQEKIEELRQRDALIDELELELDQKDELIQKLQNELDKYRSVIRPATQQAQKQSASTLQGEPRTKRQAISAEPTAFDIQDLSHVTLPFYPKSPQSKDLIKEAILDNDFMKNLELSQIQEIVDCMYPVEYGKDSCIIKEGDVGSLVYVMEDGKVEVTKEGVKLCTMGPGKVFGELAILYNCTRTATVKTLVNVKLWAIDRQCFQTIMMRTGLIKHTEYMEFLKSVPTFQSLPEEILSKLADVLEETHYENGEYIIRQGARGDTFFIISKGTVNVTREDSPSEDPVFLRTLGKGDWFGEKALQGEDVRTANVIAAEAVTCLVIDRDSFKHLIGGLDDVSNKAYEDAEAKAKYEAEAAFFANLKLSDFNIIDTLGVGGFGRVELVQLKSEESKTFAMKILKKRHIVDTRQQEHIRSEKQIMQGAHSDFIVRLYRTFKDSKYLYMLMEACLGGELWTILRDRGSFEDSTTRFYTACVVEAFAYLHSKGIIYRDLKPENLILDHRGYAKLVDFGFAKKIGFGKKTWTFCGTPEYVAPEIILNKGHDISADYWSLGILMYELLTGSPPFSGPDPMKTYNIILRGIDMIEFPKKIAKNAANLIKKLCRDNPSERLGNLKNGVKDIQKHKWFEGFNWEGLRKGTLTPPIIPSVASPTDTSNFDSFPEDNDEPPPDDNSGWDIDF
# Procedure: as §1, §2, §3
# [3] = biological target: T3, human recombinant ROCK II (Homo sapiens, UniProt O75116); assay: Determination of Rho kinase inhibition (ROCK II, Caliper peptide phosphorylation assay); settings: respective form (salt or free base) as obtained in the examples, 60 min at 32° C.
# T3 construct: recombinant human ROCK-II residues 11-552; His6 (N); purchased Millipore GmbH, Schwalbach, Germany
# T3 sequence (O75116 11-552): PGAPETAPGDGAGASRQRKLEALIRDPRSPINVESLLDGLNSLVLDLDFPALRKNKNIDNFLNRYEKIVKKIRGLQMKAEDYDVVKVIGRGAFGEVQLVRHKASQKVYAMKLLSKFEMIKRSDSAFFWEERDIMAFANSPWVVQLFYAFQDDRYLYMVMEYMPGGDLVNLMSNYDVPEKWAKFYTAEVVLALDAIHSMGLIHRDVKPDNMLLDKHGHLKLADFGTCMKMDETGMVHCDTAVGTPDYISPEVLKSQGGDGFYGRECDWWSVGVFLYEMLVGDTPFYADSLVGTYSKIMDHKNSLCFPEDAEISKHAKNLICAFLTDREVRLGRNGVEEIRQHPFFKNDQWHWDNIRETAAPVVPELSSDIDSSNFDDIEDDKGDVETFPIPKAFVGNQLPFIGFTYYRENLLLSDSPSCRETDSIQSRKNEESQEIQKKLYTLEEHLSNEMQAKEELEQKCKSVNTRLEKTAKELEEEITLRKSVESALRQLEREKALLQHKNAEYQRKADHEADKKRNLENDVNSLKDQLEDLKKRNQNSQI
# Procedure: To measure Rho-kinase inhibition, IC50 values were determined according to the following protocol:
# Active human recombinant ROCK II (N-terminal His6-tagged recombinant human ROCK-II residues 11-552) was purchased from Millipore GmbH, Schwalbach, Germany. The peptide substrate, Fluorescein-[…]-COOH, was obtained from JPT Peptide Technologies, Berlin, Germany. Adenosine-5′-triphosphate (ATP), bovine serum albumine (BSA), dimethylsulphoxide (DMSO), 4-(2-hydroxyethyl)piperazine-1-ethanesulfonic acid (Hepes), Brij-35, dithiothreitol (DTT) and Pluronic F-68 were purchased from Sigma-Aldrich, Munich, Germany. Tris(hydroxymethyl)-aminomethane (Tris), magnesium chloride, NaOH, 1M HCl and EDTA were obtained from Merck Biosciences, Darmstadt, Germany. “Complete” protease inhibitor was from Roche Diagnostics, Mannheim, Germany. Test compounds were diluted to the appropriate concentrations in buffer 1 (25 mM Tris-HCl, pH 7.4, 5 mM MgCl2, 2 mM DTT, 0.02% (w/v) BSA, 0.01% Pluronic F-68 and 3% DMSO). The ROCK II enzyme was diluted to a concentration of 100 ng/mL in buffer 2 (25 mM Tris-HCl, pH 7.4, 5 mM MgCl2, 2 mM DTT and 0.02% (w/v) BSA). The peptide substrate and ATP were diluted to concentrations of 3 μM and 120 μM, respectively, in the buffer 2. Two μl of the compound solution were mixed with 2 μl of the diluted enzyme in a 384-well small volume microtiter plate (Greiner, Bio-One, Frickenhausen, Germany), and the kinase reaction was initiated by addition of 2 μl of the solution containing peptide substrate and ATP. After 60 min incubation at 32° C., the reaction was stopped by addition of 20 μl of a solution containing 100 mM Hepes-NaOH, pH 7.4, 0.015% (v/v) Brij-35, 45 mM EDTA and 0.227% chip coating reagent 1 (Caliper Lifescience Inc, Hopkinton, Mass.). Phosphorylation of the substrate peptide was then detected on a Caliper 3000 instrument essentially as described by Pommereau et al (J. Biomol. Screening 2004, 9(5), 409-416). Separation conditions were as follows: Pressure −1.3 psi, upstream voltage −1562 V, downstream voltage −500 V, sample sip time 200 ms. Positive controls (buffer 1 instead of compound) and negative controls (buffer 1 instead of compound and buffer 2 instead of ROCK II) were run in parallel on each plate.
# The following products/compounds were tested in said assay by using the respective form (salt or free base) obtained as in the examples described above and the following activities were measured
SMILES,Selectivity against PKA [1] [fold],Selectivity against PKG [2] [fold],IC50 [3] [nM]
"CC(N)C1(C2CCC2)CCC(Oc2cc3cc[nH]c(=O)c3cc2Cl)CC1 (single isomer, unassigned) [Example 21, 6-[4-(1-Amino-ethyl)-4-cyclobutyl-cyclohexyloxy]-7-chloro-2H-isoquinolin-1-one]",>300,>100,10 to 100
"CCCC1(C(N)CC)CCC(Oc2cc3cc[nH]c(=O)c3cc2Cl)CC1 (single isomer, unassigned) [Example 5, 6-[4-(1-Amino-propyl)-4-propyl-cyclohexyloxy]-7-chloro-2H-isoquinolin-1-one]",>1000,>1000,≤ 10
"CCC(N)C1(Cc2ccccc2)CCC(Oc2cc3cc[nH]c(=O)c3cc2Cl)CC1 (single isomer, unassigned) [Example 30, 6-[4-(1-Amino-propyl)-4-benzyl-cyclohexyloxy]-7-chloro-2H-isoquinolin-1-one]",>300,>10,10 to 100
"CCC(N)[C@]1(C2CCOCC2)CC[C@H](Oc2cc3cc[nH]c(=O)c3cc2Cl)CC1 (single isomer, unassigned) [Example 2, 6-[4-(1-Aminopropyl)-4-(tetrahydropyran-4-yl)-cyclohexyloxy]-7-chloro-2H-isoquinolin-1-one]",>10,>1,100 to 1000
"CCC(N)[C@]1(C(C)C)CC[C@H](Oc2cc3c(F)c[nH]c(=O)c3cc2Cl)CC1 (stereo partly drawn) [Example 90, cis-6-[4-(1-Amino-propyl)-4-isopropyl-cyclohexyloxy]-7-chloro-4-fluoro-2H-isoquinolin-1-one]",>300,>100,10 to 100
"CCC(N)[C@]1(C2CCOCC2)CC[C@H](Oc2cc3cc[nH]c(=O)c3cc2Cl)CC1 (mixture of isomers) [Example 1, cis-6-[4-(1-Aminopropyl)-4-(tetrahydropyran-4-yl)-cyclohexyloxy]-7-chloro-2H-isoquinolin-1-one]",>1000,>300,≤ 10
"CCCC1(C(N)C2CC2)CCC(Oc2cc3cc[nH]c(=O)c3cc2Cl)CC1 (single isomer, unassigned) [Example 7, 6-[4-(Amino-cyclopropyl-methyl)-4-propyl-cyclohexyloxy]-7-chloro-2H-isoquinolin-1-one]",>300,>100,10 to 100

# Continued, values first:
Selectivity against PKA [1] [fold],Selectivity against PKG [2] [fold],IC50 [3] [nM],SMILES
>1000,>300,≤ 10,"CCC[C@]1(C(C)N)CC[C@@H](Oc2cc3cc[nH]c(=O)c3cc2Cl)CC1 (stereo partly drawn) [Example 77, cis-6-[4-(1-Amino-ethyl)-4-propyl-cyclohexyloxy]-7-chloro-2H-isoquinolin-1-one]"
>300,>100,10 to 100,"CC[C@]1(C(C)N)CC[C@@H](Oc2cc3cc[nH]c(=O)c3cc2F)CC1 (stereo partly drawn) [Example 78, cis-6-[4-(1-Amino-ethyl)-4-ethyl-cyclohexyloxy]-7-fluoro-2H-isoquinolin-1-one]"
>1000,>1000,≤ 10,"CC[C@]1(C(N)C2CC2)CC[C@@H](Oc2cc3cc[nH]c(=O)c3cc2Cl)CC1 (stereo partly drawn) [Example 70, cis-6-[4-(Amino-cyclopropyl-methyl)-4-ethyl-cyclohexyloxy]-7-chloro-2H-isoquinolin-1-one]"
>1000,>1000,≤ 10,"CCC(N)C1(CC)CCC(Oc2cc3cc[nH]c(=O)c3cc2Cl)CC1 (single isomer, unassigned) [Example 107]"
>1000,>1000,≤ 10,"CCC(N)[C@]1(C2CCSCC2)CC[C@H](Oc2cc3cc[nH]c(=O)c3cc2Cl)CC1 (stereo partly drawn) [Example 76, cis-6-[4-(1-Amino-propyl)-4-(tetrahydro-thiopyran-4-yl)-cyclohexyloxy]-7-chloro-2H-isoquinolin-1-one]"
>1000,>1000,≤ 10,"CCC(N)C1(C2CCOCC2)CCC(Oc2cc3cc[nH]c(=O)c3cc2Cl)CC1 (single isomer, unassigned) [Example 106]"
>300,>100,10 to 100,CCC(N)[C@]1(C2CCCCC2)CC[C@H](Oc2cc3cc[nH]c(=O)c3cc2Cl)CC1 (stereo partly drawn) [Example 65]
>1000,>300,≤ 10,"CC[C@]1(C(N)CF)CC[C@@H](Oc2cc3cc[nH]c(=O)c3cc2Cl)CC1 (stereo partly drawn) [Example 95, cis-6-[4-(1-Amino-2-fluoro-ethyl)-4-ethyl-cyclohexyloxy]-7-chloro-2H-isoquinolin-1-one]"
